Results as given in patent US20250270170A1, “2,3-DIMETHOXY-5-METHYL-1,4-BENZOQUINONE ALKYL ALCOHOL DERIVATIVE AND USE THEREOF” (BEIJING ANJIANXI BIO-MEDICAL TECHNOLOGY CO., LTD., priority 2021, published 2025).
Values joined by “and” are separate entries in the source; they are usually repeats but may differ in a detail not shown here. Identical values can stand only once. Marks after values point to notes of the source that are not given here.

Assays:
[1] = test system: human gastric cancer NCI-N87 transplanted tumor; test: Example 3: tumor growth in NCI-N87 transplanted tumor model in nude mice; type: in vivo, BALB/c nude mice; conditions: DDP 4/4/5/5 mg/kg i.p. QW×4
Description: Female BALB/c nude mice (age: 6 to 7 weeks) were purchased from Beijing Vital River Laboratory Animal Technology Co., Ltd. The mice were raised in an SPF animal room at a temperature of 20 to 25° C., a relative humidity of 40% to 70%, and a cycle of 12 hours of light and 12 hours of dark. The animals had free access to water and food. After about 1 week of normal feeding, mice with good physical condition after the veterinary examination were selected for this assay. Before grouping, a marker was used to mark on the base of the animals' tail. After grouping, each animal was marked with an ear cutout.
The solution was prepared before each administration. An appropriate amount of DDP was weighed and put into a glass bottle. Then, an appropriate volume of physiological saline was added to the bottle, and vortexed (may be heated in a water bath to 50 to 60° C.) to completely dissolve the drug.
An appropriate amount of the compound was weighed and added to an appropriate volume of dimethylacetamide (DMA). The mixture was vortexed to prepare a stock solution (8 mg·mL^−1). The stock solution was prepared once a week, divided into packages and then stored in a 2 to 8° C. refrigerator. One tube was taken out before each administration, and an appropriate volume of 30% Solutol and PEG400 was added while vortexing. The mixture was vortexed and mixed well. Then, an appropriate volume of physiological saline was added, and mixed well to give an administration formulation with a concentration of 0.4 mg·mL^−1, in which the volume ratio of DMA: 30% Solutol: PEG 400: physiological saline was 5:20:20:55.
Human gastric cancer cells NCI-N87 were obtained from the Cell Bank of the Type Culture Collection Committee of Chinese Academy of Sciences (cryopreserved in liquid nitrogen in the laboratory).
NCI-N87 cells were routinely cultured in a RPMI-1640 culture medium containing 10% fetal bovine serum under culture conditions of 37° C. and 5% CO2. The cells were digested with 0.25% trypsin, and passaged according to the cell growth conditions with a passaging ratio of 1:3 to 1:5.
The NCI-N87 cells in the logarithmic growth phase were collected, counted and resuspended in a serum-free RPMI-1640 medium, and the cell concentration was adjusted to 5×10^7 cells/mL. The cells were pipetted with a pipette to disperse them evenly, and the cells were put into a 50-mL centrifuge tube, which was placed in an ice box. A 1-mL syringe was used to draw the cell suspension, which was injected subcutaneously into the axilla of the front right limb of a nude mouse. Each animal was inoculated with 100 μL (5×10^6 cells/mouse) to establish an NCI-N87 transplanted tumor model in nude mice. After the inoculation, the animal status and tumor growth were regularly observed, and the tumor diameter was measured using an electronic vernier caliper. The data were input into an Excel spreadsheet to calculate the tumor volume. When the tumor volume reached 100 to 300 mm^3, 72 animals in good health and with similar tumor volumes were selected and divided into 9 groups (n=8) using randomized block method. The day of grouping was regarded as the first day of the assay (D1). After the start of the assay, the tumor diameter was measured twice a week, the tumor volume was calculated, and the animal body weight was also weighed and recorded.
The calculation formula of tumor volume (TV) is as follows: […]
wherein l represents the long diameter of a tumor (mm); and w represents the short diameter of a tumor (mm).
On the last day of the assay (D44), the animals were anesthetized using CO2 inhalation 1 hour after administration (R01) and sacrificed, and tumor tissues were collected, weighed, and photographed.
The calculation formula of tumor growth inhibition rate TGI (%) is: […]

[2] = test system: VEGF/VEGFR/p-VEGFR and other proteins in NCI-N87 transplanted tumor tissues; test: Example 4: Western blot of NCI-N87 transplanted tumor tissue proteins; type: in vivo, nude mice; conditions: Western blot grayscale vs blank solvent group, compound of formula (I) 2 mg/kg
Description: Western Blot technology was used to quantitatively detect the expression of VEGF/VEGFR, Survivin and other proteins in tumor tissues. […] In this study, 50 μg of tumor tissue proteins were added to each well, and the working concentrations of the antibodies were diluted according to the instructions. Briefly: the tumor tissue was taken, lysed with an RIPA protein lysis solution containing 1% PMSF and mixed protease inhibitors, and centrifuged at 12000×g for 20 min to take the supernatant; the concentration of proteins was detected by BCA method; 10% SDS-PAGE gel electrophoresis was performed; the proteins from SDS-PAGE gel were transfered to a PVDF membrane by semi-dry […]; the membrane was blocked with a fast blocking buffer for 10 minutes, and a primary antibody at corresponding working concentration was added, and incubated at 4° C. overnight; the membrane was washed with TBST for 3 times, and incubated with a secondary antibody at room temperature for 1 h; after washing the membrane three times, an image was developed and saved, and the grayscale values were analyzed with Image lab; the anti-Vinculin antibody was used as an internal reference control antibody.
The grayscale of the Western blot bands were calculated with Image J software, and Graphpad Prism 5 was used for related statistical processing. A two-sided t-test was used for comparison between two groups. P>0.05 means no significance (NS), P<0.05 is *, […], and P<0.001 is ***.

[3] = Example 7: serum UREA content; type: in vivo, nude mice; conditions: DDP 4/2/1/4 mg/kg IP

SMILES: N.N.[Cl][Pt][Cl] [DDP, cisplatin]
- Mean tumor volume ([1]; D13): 141 ± 9 mm^3
- Mean tumor volume ([1]; D16): 194 ± 18 mm^3
- tumor growth inhibition rate ([1]; D16): (36%)
- Mean tumor volume ([1]; D20): 245 ± 22 mm^3
- tumor growth inhibition rate ([1]; D20): (37%)
- Mean tumor volume ([1]; D23): 276 ± 28* mm^3
- tumor growth inhibition rate ([1]; D23): (43%)
- Mean tumor volume ([1]; D27): 351 ± 22** mm^3
- tumor growth inhibition rate ([1]; D27): (46%)
- Mean tumor volume ([1]; D30): 413 ± 27** mm^3
- tumor growth inhibition rate ([1]; D30): (51%)
- Mean tumor volume ([1]; D34): 492 ± 33** mm^3
- tumor growth inhibition rate ([1]; D34): (54%)
- Mean tumor volume ([1]; D37): 580 ± 47** mm^3
- tumor growth inhibition rate ([1]; D37): (55%)
- Mean tumor volume ([1]; D44): 684 ± 45** mm^3
- tumor growth inhibition rate ([1]; D44): (56%)
- expression of CyclinD1 [2]: up-regulated
- expression of VEGFA [2]: down-regulated
- expression of VEGFR2 [2]: up-regulated
- expression of anti-apoptotic protein Survivin [2]: down-regulated
- expression of cell cycle regulatory protein P21 [2]: down-regulated
- expression of p-VEGFR2 [2]: down-regulated
- expression of β-catenin [2]: up-regulated
- Serum UREA content, Mean [3]: 10.28 mmol serum^−1
- Serum UREA content, individual animals No1-No6 [3]: 8.06 mmol serum^−1 and 12.81 mmol serum^−1 and 15.45 mmol serum^−1 and 8.28 mmol serum^−1 and 10.47 mmol serum^−1 and 6.62 mmol serum^−1
